From patent publication US20230150974A1 (Foghorn Therapeutics Inc., priority 2020, published 2023) come the findings set out here.

One test concerns the target T1, HiBit-BRG1 (Homo sapiens, UniProt P51532).
T1 construct: expressed in transfected cells
In words: HiBit-BRG1 cell-based degradation assay (Nano-Glo HiBiT Lytic Detection). Conditions: HeLa cells expressing HiBit-BRG1 and LgBit, 24 h; for DC50: read-out: BRG1 HiBit Degradation IC50; for Dmax: read-out: BRG1 HiBit Degradation Maximum (%). Here is the method:
(§1) Procedure: A stable HeLa cell line expressing HiBiT-BRM was generated. On day 0, 5000 cells were seeded in 40 μL of media into each well of 384-well cell culture plates. […] Subsequently plates were incubated for 24 h in a standard tissue culture incubator and equilibrated at room temperature for 15 minutes. Nano-Glo HiBiT Lytic Detection System (Promega N3050) reagent was freshly prepared and 20 ul was added to each well. Upon addition of this LgBit-containing reagent, the HiBiT and LgBiT proteins associate to form the luminescent NanoBiT luciferase. The plates were shaken for 10 minutes at room temperature and the bioluminescence read using an EnVision plate reader (PerkinElmer).
For measurement of BRG1 degradation, a stable HeLa cell line expressing HiBit-BRG1 and LgBit was generated. The same protocol as above was then followed.
(§2) The degradation % was calculated using the following formula: % degradation=100%−100%×(LumSample−LumLC)/(LumHC−LumLC). DMSO treated cells are employed as High Control (HC) and 2 μM of a known BRM/BRG1 degrader standard treated cells are employed as Low Control (LC).

The target of another test is T2, HiBiT-BRM (Homo sapiens, UniProt P51531).
T2 construct: expressed in transfected cells
T2 sequence (P51531 whole entry): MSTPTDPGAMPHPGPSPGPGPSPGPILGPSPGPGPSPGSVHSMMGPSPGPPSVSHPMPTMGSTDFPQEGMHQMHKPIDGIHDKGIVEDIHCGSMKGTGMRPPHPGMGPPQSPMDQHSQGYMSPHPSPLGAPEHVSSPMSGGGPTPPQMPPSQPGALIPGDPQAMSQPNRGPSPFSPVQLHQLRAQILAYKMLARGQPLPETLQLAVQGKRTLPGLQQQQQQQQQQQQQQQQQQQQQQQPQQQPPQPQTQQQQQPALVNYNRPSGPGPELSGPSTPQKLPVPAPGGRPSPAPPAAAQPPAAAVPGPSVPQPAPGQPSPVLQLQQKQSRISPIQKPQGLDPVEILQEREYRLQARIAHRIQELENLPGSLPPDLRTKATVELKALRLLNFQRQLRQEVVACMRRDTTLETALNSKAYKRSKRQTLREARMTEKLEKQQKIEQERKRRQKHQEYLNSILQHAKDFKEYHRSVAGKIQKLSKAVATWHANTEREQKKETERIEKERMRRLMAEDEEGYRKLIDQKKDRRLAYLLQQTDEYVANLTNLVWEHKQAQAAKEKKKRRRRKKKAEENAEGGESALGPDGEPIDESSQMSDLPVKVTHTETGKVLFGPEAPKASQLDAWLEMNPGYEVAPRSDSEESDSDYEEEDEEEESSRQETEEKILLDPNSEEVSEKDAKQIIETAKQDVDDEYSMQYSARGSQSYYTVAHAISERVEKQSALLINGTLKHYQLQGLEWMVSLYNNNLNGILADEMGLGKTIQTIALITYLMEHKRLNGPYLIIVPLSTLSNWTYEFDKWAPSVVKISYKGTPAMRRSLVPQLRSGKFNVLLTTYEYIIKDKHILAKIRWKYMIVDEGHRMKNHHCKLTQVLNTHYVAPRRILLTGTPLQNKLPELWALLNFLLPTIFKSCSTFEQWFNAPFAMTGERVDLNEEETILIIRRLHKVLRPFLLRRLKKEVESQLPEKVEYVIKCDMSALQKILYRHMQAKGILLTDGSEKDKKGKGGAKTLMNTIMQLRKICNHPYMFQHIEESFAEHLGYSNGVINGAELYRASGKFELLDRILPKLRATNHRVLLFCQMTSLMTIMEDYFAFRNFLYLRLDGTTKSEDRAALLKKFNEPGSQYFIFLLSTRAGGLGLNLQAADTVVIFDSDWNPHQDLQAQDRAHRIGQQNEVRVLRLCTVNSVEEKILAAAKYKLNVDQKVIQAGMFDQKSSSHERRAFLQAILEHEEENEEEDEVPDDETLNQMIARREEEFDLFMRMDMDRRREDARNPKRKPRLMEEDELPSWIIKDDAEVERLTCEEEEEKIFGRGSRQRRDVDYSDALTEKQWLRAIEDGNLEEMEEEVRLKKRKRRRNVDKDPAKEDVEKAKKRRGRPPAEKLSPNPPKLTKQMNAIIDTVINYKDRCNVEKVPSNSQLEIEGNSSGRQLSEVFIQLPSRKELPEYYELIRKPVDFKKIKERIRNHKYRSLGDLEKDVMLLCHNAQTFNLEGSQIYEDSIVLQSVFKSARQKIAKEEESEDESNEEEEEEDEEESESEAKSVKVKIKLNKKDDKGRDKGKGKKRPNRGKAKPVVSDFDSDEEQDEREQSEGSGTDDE
In words: HiBiT-BRM cell-based degradation assay (Nano-Glo HiBiT Lytic Detection). Conditions: HeLa cells expressing HiBiT-BRM, 24 h; for DC50: read-out: BRM HiBit Degradation IC50. How it is done: as §1, §2
On the technique in general: With HiBiT, luminescence reflects the tagged protein that the partner subunit can reach.

SMILES strings stand for the structures. Counter-ions that a name gives are not always drawn.

T1 sequence (P51532 whole entry): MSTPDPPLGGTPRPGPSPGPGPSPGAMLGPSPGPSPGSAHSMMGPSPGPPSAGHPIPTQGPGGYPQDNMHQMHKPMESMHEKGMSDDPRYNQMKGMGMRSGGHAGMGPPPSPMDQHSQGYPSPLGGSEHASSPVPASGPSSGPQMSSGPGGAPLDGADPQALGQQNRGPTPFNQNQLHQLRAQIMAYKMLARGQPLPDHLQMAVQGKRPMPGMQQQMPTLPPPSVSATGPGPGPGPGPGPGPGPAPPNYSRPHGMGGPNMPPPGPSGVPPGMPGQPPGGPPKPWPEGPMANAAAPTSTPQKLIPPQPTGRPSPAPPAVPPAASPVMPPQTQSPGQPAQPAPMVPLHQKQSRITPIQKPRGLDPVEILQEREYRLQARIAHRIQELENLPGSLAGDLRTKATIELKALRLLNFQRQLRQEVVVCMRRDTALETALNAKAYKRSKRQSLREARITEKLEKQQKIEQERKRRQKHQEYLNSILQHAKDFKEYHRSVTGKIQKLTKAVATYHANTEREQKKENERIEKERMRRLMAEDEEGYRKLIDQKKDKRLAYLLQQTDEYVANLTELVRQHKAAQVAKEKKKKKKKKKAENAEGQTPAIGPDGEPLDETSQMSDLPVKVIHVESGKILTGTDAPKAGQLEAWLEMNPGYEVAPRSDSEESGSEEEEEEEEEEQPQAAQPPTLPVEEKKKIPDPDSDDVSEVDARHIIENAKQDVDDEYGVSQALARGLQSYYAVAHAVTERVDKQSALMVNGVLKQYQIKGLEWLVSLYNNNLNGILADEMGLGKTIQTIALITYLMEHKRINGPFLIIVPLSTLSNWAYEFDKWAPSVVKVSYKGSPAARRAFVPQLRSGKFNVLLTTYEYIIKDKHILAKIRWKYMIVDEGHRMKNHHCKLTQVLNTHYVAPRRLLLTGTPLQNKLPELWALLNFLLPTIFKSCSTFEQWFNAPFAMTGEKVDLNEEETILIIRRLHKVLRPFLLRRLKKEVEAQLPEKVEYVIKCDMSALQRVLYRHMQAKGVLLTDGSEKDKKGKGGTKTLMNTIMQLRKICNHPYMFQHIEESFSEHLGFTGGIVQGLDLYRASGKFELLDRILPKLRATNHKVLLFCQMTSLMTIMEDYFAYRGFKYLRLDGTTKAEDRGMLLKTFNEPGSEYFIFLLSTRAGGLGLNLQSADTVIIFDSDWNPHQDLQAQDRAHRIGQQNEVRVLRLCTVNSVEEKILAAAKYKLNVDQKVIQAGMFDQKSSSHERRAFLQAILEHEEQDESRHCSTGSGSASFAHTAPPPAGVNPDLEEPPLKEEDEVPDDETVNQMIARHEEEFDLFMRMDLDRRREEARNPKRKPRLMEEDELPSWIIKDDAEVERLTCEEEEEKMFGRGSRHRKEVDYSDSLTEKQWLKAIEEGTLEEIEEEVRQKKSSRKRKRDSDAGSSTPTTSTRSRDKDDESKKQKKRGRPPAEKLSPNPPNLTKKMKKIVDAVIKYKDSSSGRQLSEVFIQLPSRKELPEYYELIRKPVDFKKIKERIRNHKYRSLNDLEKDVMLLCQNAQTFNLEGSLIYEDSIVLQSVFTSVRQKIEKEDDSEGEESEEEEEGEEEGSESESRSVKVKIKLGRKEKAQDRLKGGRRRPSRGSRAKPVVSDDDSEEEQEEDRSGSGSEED

Turning to `Nc1nnc(-c2ccccc2O)cc1NCCc1ccc(CNCCN2CCN(c3cccc4c3C(=O)N(C3CCC(=O)NC3=O)C4=O)CC2)cc1` (stereo not shown) [Compound 166, 4-(4-(2-((4-(2-((3-amino-6-(2-hydroxyphenyl)pyridazin-4-yl)amino)ethyl)benzyl)amino)ethyl)piperazin-1-yl)-2-(2,6-dioxopiperidin-3-yl)isoindoline-1,3-dione], at HiBit-BRG1, the DC50 is > 1 µM and the Dmax was < 50%. For the same compound, on HiBiT-BRM, the “BRM HiBit Degradation Maximum (%)” value is “C (“C” indicates maximum degradation <50%)” and the DC50 was > 1 µM.
As for `Cc1ncsc1-c1ccc(CNC(=O)[C@@H]2C[C@@H](O)CN2C(=O)[C@@H](NC(=O)CCCCCCCCCC(=O)NCc2ccc(CCOc3cc(-c4ccccc4O)nnc3N)cc2)C(C)(C)C)cc1` [Compound 28, N′-[[4-(2-[[3-amino-6-(2-hydroxyphenyl)pyridazin-4-yl]oxy]ethyl)phenyl]methyl]-N-[(2S)-1-[(2S,4R)-4-hydroxy-2-([[4-(4-methyl-1,3-thiazol-5-yl)phenyl]methyl]carbamoyl)pyrrolidin-1-yl]-3,3-dimethyl-1-oxobutan-2-yl]undecanediamide], at HiBit-BRG1, the DC50 is > 1 µM and the Dmax is < 50%. On HiBiT-BRM, the “BRM HiBit Degradation Maximum (%)” value is on record as “A (“A” indicates maximum degradation ≥75%)” and the DC50 is > 0.1 µM.
The like results for `Cc1nc2cccc(NCCCCCCCCNC(=O)c3ccc(CCOc4cc(-c5ccccc5O)nnc4N)cc3)c2c(=O)n1C1CCC(=O)NC1=O` (stereo not shown) [Compound 45, 4-(2-[[3-amino-6-(2-hydroxyphenyl)pyridazin-4-yl]oxy]ethyl)-N-(8-[[3-(2,6-dioxopiperidin-3-yl)-2-methyl-4-oxoquinazolin-5-yl]amino]octyl)benzamide] were, in that order, > 1 µM, < 50%, “C (“C” indicates maximum degradation <50%)” and > 1 µM.
The like results for `Cc1ncsc1-c1ccc([C@H](C)NC(=O)[C@@H]2C[C@@H](O)CN2C(=O)[C@@H](NC(=O)CCCCCCCCCCCCCCNC(=O)c2ccc(CCOc3cc(-c4ccccc4O)nnc3N)cc2)C(C)(C)C)cc1` [Compound 254, (2S,4R)-1-((S)-2-(15-(4-(2-((3-amino-6-(2-hydroxyphenyl)pyridazin-4-yl)oxy)ethyl)benzamido)pentadecanamido)-3,3-dimethylbutanoyl)-4-hydroxy-N-((S)-1-(4-(4-methylthiazol-5-yl)phenyl)ethyl)pyrrolidine-2-carboxamide] were, in that order, > 1 µM, < 50%, “B (“B” indicates maximum degradation ≥50%)” and > 0.01 µM.
The like results for `Nc1nnc(-c2ccccc2O)cc1OCCc1ccc(CNCCNc2cccc3c2C(=O)N(C2CCC(=O)NC2=O)C3=O)cc1` (stereo not shown) [Compound 109, 4-[[2-([[4-(2-[[3-amino-6-(2-hydroxyphenyl)pyridazin-4-yl]oxy]ethyl)phenyl]methyl]amino)ethyl]amino]-2-(2,6-dioxopiperidin-3-yl)isoindole-1,3-dione, formic acid salt] were, in that order, > 1 µM, < 50%, “C (“C” indicates maximum degradation <50%)” and > 1 µM.
Turning to `Cc1ncsc1-c1ccc([C@H](C)NC(=O)[C@@H]2C[C@@H](O)CN2C(=O)[C@@H](c2cc(OCCN3CC4(C3)CN(C(=O)c3ccc(CCOc5cc(-c6ccccc6O)nnc5N)cc3)C4)no2)C(C)C)cc1` [Compound 208, (2S,4R)-1-[(2R)-2-[3-(2-[6-[4-(2-[[3-amino-6-(2-hydroxyphenyl)pyridazin-4-yl]oxy]ethyl)benzoyl]-2,6-diazaspiro[3.3]heptan-2-yl]ethoxy)-1,2-oxazol-5-yl]-3-methylbutanoyl]-4-hydroxy-N-[(1S)-1-[4-(4-methyl-1,3-thiazol-5-yl)phenyl]ethyl]pyrrolidine-2-carboxamide], at HiBit-BRG1, the DC50 is > 0.1 µM and the Dmax is > 75%. Moreover, at HiBiT-BRM, the “BRM HiBit Degradation Maximum (%)” value is given as “A (“A” indicates maximum degradation ≥75%)” and the DC50 is > 0.01 µM.
The like results for `Cc1ncsc1-c1ccc(CNC(=O)[C@@H]2C[C@@H](O)CN2C(=O)[C@@H](NC(=O)CCN2CC3=C(C2)CN(C(=O)c2ccc(CCOc4cc(-c5ccccc5O)nnc4N)cc2)C3)C(C)(C)C)cc1` [Compound 219, (2S,4R)-1-((S)-2-(3-(5-(4-(2-((3-amino-6-(2-hydroxyphenyl)pyridazin-4-yl)oxy)ethyl)benzoyl)-3,4,5,6-tetrahydropyrrolo[3,4-c]pyrrol-2(1H)-yl)propanamido)-3,3-dimethylbutanoyl)-4-hydroxy-N-(4-(4-methylthiazol-5-yl)benzyl)pyrrolidine-2-carboxamide] were, in that order, > 1 µM, < 50%, “B (“B” indicates maximum degradation ≥50%)” and > 1 µM.
The like results for `Cc1ncsc1-c1ccc([C@H](C)NC(=O)[C@@H]2C[C@@H](O)CN2C(=O)[C@@H](c2cc(OCCN3CCC4(CC3)CCN(C(=O)c3ccc(CCOc5cc(-c6ccccc6O)nnc5N)cc3)CC4)no2)C(C)C)cc1` [Compound 209, (2S,4R)-1-[(2R)-2-[3-(2-[9-[4-(2-[[3-amino-6-(2-hydroxyphenyl)pyridazin-4-yl]oxy]ethyl)benzoyl]-3,9-diazaspiro[5.5]undecan-3-yl]ethoxy)-1,2-oxazol-5-yl]-3-methylbutanoyl]-4-hydroxy-N-[(1S)-1-[4-(4-methyl-1,3-thiazol-5-yl)phenyl]ethyl]pyrrolidine-2-carboxamide] were, in that order, > 0.1 µM, > 75%, “A (“A” indicates maximum degradation ≥75%)” and > 0.01 µM.
The like results for `Cc1ncsc1-c1ccc(CNC(=O)[C@@H]2C[C@@H](O)CN2C(=O)[C@@H](NC(=O)CCN2CC(C3CN(C(=O)c4ccc(CCOc5cc(-c6ccccc6O)nnc5N)cc4)C3)C2)C(C)(C)C)cc1` [Compound 224, (2S,4R)-1-((S)-2-(3-(1′-(4-(2-((3-amino-6-(2-hydroxyphenyl)pyridazin-4-yl)oxy)ethyl)benzoyl)-[3,3′-biazetidin]-1-yl)propanamido)-3,3-dimethylbutanoyl)-4-hydroxy-N-(4-(4-methylthiazol-5-yl)benzyl)pyrrolidine-2-carboxamide] were, in that order, > 1 µM, < 50%, “C (“C” indicates maximum degradation <50%)” and > 1 µM.
For the compound `Nc1nnc(-c2ccccc2O)cc1OCCc1ccc(C(=O)NCCCCCCCCCCCCCCC(=O)NCc2ccc(S(=O)(=O)Nc3cccc4c(Cl)c[nH]c34)cc2)cc1` [Compound 6, 15-[[4-(2-[[3-amino-6-(2-hydroxyphenyl)pyridazin-4-yl]oxy]ethyl)phenyl]formamido]-N-([4-[(3-chloro-1H-indol-7-yl)sulfamoyl]phenyl]methyl)pentadecanamide], on HiBit-BRG1, the DC50 is > 1 µM and the Dmax is < 50%. On HiBiT-BRM, the “BRM HiBit Degradation Maximum (%)” value is recorded as “C (“C” indicates maximum degradation <50%)” and the DC50 was > 1 µM.
Take `Nc1nnc(-c2ccccc2O)cc1N1CCN(CC(=O)NCCS(=O)(=O)CCNc2cccc3c2C(=O)N(C2CCC(=O)NC2=O)C3=O)CC1` (stereo not shown) [Compound 79, 2-[4-[3-amino-6-(2-hydroxyphenyl)pyridazin-4-yl]piperazin-1-yl]-N-[2-(2-[[2-(2,6-dioxopiperidin-3-yl)-1,3-dioxoisoindol-4-yl]amino]ethanesulfonyl)ethyl]acetamide]: at HiBit-BRG1, the DC50 was > 1 µM and the Dmax is < 50%. For the same compound, at HiBiT-BRM, the “BRM HiBit Degradation Maximum (%)” value is “C (“C” indicates maximum degradation <50%)” and the DC50 is > 1 µM.
For `Cc1ncsc1-c1ccc([C@H](C)NC(=O)[C@@H]2C[C@@H](O)CN2C(=O)[C@@H](NC(=O)CCCCCCCCCCCCCCCC(=O)N(C)Cc2ccc(CCOc3cc(-c4ccccc4O)nnc3N)cc2)C(C)(C)C)cc1` [Compound 227, N1-(4-(2-((3-amino-6-(2-hydroxyphenyl)pyridazin-4-yl)oxy)ethyl)benzyl)-N17-((S)-1-((2S,4R)-4-hydroxy-2-(((S)-1-(4-(4-methylthiazol-5-yl)phenyl)ethyl)carbamoyl)pyrrolidin-1-yl)-3,3-dimethyl-1-oxobutan-2-yl)-N1-methylheptadecanediamide], on HiBit-BRG1, the DC50 was > 0.1 µM and the Dmax was > 75%. For the same compound, at HiBiT-BRM, the “BRM HiBit Degradation Maximum (%)” value was “A (“A” indicates maximum degradation ≥75%)” and the DC50 is > 0.01 µM.
Turning to `Cc1ncsc1-c1ccc(CNC(=O)[C@@H]2C[C@@H](O)CN2C(=O)[C@@H](NC(=O)CCCCCCC(=O)NCc2ccc(CCOc3cc(-c4ccccc4O)nnc3N)cc2)C(C)(C)C)cc1` [Compound 30], on HiBit-BRG1, the DC50 was > 1 µM and the Dmax is < 50%. Further, on HiBiT-BRM, the “BRM HiBit Degradation Maximum (%)” value was “A (“A” indicates maximum degradation ≥75%)” and the DC50 was > 0.1 µM.
